Results reported in ChEMBL document CHEMBL1149855, “Dihydrobenzo[c]phenanthridine alkaloids from stem bark of Zanthoxylum nitidum” (J Nat Prod, 2008).
The source made the active and inactive calls.

Tests used:
Format in all cases: functional, cell-based
SF-268 = experiment: Cytotoxicity against human SF268 cells up to 29.2 ug/mL after 72 hrs by MTS reduction assay
NCI-H460 = experiment: Cytotoxicity against human NCI-H460 cells up to 29.2 ug/mL after 72 hrs by MTS reduction assay
MCF7 = experiment: Cytotoxicity against human MCF7 cells up to 29.2 ug/mL after 72 hrs by MTS reduction assay

Measured: Activity

COc1ccc2c(c1OC)[C@@H](CC1=C[C@@H]3[C@@H](CC1)[C@@](C)(OC)CC[C@H]3C(C)C)N(C)c1c-2ccc2cc3c(cc12)OCO3
inactive: SF-268 | NCI-H460 | MCF7

COc1ccc2c(c1OC)[C@H](CC1=C[C@@H]3[C@@H](CC1)[C@](C)(OC)CC[C@H]3C(C)C)N(C)c1c-2ccc2cc3c(cc12)OCO3
inactive: SF-268 | NCI-H460 | MCF7

COc1ccc2c(c1OC)[C@@H](CC1=C[C@@H]3[C@@H](CC1)[C@](C)(OC)CC[C@H]3C(C)C)N(C)c1c-2ccc2cc3c(cc12)OCO3
inactive: SF-268 | NCI-H460 | MCF7

COc1ccc2c(c1OC)[C@@H](CC1=C[C@H]3[C@H](C(C)C)CC[C@](C)(OC)[C@H]3CC1)N(C)c1c-2ccc2cc3c(cc12)OCO3
inactive: SF-268 | NCI-H460 | MCF7

COc1ccc2c(c1OC)[C@H](CC1=C[C@H]3[C@H](C(C)C)CC[C@](C)(OC)[C@H]3CC1)N(C)c1c-2ccc2cc3c(cc12)OCO3
inactive: SF-268 | NCI-H460 | MCF7
